Molecular target: T1, human vasopressin V2 receptor subtype (Homo sapiens, UniProt P30518)
T1 construct: host or cells: CHO cells (pZeoSV vector)
Test: Vasopressin binding in Chinese Hamster Ovary cell membranes expressing human vasopressin V2 subtype receptors
Settings: 100 nM, CHO cell membranes, [3H]arginine vasopressin, values without parentheses
Procedure, shortened: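 Radioligand displacement on membranes from CHO cells stably expressing human V2 receptor, 25 to 50 μg protein/well, in 50 mM Tris-HCl pH 7.4 with MgCl2, BSA and protease inhibitors. [^3H]arginine vasopressin (8 nM working solution) incubated 60 min at room temperature; bound label measured by filtration and scintillation counting.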

T1 sequence (P30518 whole entry): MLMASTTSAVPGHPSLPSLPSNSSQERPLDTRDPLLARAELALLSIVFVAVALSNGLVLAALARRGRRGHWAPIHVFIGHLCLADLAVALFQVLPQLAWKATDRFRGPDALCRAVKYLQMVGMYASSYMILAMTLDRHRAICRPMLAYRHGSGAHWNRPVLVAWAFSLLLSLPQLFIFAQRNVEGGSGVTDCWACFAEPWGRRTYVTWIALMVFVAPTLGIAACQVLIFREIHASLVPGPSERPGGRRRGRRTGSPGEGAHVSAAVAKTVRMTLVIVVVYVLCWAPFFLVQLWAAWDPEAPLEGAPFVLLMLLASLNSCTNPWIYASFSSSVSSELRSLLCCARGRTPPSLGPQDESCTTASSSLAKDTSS

Compound: Cc1ccccc1-c1ccc(C(=O)N2Cc3ccc(C(=O)N4CCN(CCN5CCOCC5)CC4)n3Cc3ccccc32)cc1C [Example 218, {10-[(2,2′-Dimethyl[1,1′-biphenyl]-4-yl)carbonyl]-10,11-dihydro-5H-pyrrolo[2,1-c][1,4]benzodiazepin-3-yl}{4-[2-(4-morpholinyl)ethyl]-1-piperazinyl}methanone]
- inhibition at 0.1 µM: 23%

Compound: C=CCN1CCN(C(=O)c2ccc3n2Cc2ccccc2N(C(=O)c2ccc(-c4cccc(OC)c4)c(OC)c2)C3)CC1 [Example 228, (4-Allyl-1-piperazinyl){10-[(2,3′-dimethoxy[1,1′-biphenyl]-4-yl)carbonyl]-10,11-dihydro-5H -pyrrolo[2,1-c][1,4]benzodiazepin-3-yl}methanone]
- inhibition at 0.1 µM: 20%

Compound: Cc1ccccc1-c1ccc(C(=O)N2Cc3ccc(C(=O)N4CCN(C(C)C)CC4)n3Cc3ccccc32)cc1C [Example 233, {10-[(2,2′-Dimethyl[1,1′-biphenyl]-4-yl)carbonyl]-10,11-dihydro-5H-pyrrolo[2,1-c][1,4]benzodiazepin-3-yl}(4-isopropyl-1-piperazinyl)methanone]
- inhibition at 0.1 µM: 23%

Compound: COc1ccccc1-c1ccc(C(=O)N2Cc3ccc(C(=O)N4CCN(C(C)C)CC4)n3Cc3ccccc32)cc1C [Example 232, (4-Isopropyl-1-piperazinyl){10-[(2′-methoxy-2-methyl[1,1′-biphenyl]-4-yl)carbonyl]-10,11-dihydro-5H-pyrrolo[2,1-c][1,4]benzodiazepin-3-yl}methanone]
- inhibition at 0.1 µM: 4%

Compound: Cc1ccccc1-c1ccc(C(=O)N2Cc3ccc(C(=O)N(C)C4CCN(C)CC4)n3Cc3ccccc32)cc1 [Example 178, N-Methyl-10-[(2′-methyl[1,1′-biphenyl]-4-yl)carbonyl]-N-(1-methyl-4-piperidinyl)-10,11-dihydro-5H-pyrrolo[2,1-c][1,4]benzodiazepine-3-carboxamide]
- inhibition at 0.1 µM: 15%

Compound: COc1ccccc1-c1ccc(C(=O)N2Cc3ccc(C(=O)N4CCN(C(C)C)CC4)n3Cc3ccccc32)cc1OC [Example 241, {10-[(2,2′-Dimethoxy[1,1-biphenyl]4-yl)carbonyl]-10,11-dihydro-5H-pyrrolo[2,1-c][1,4]benzodiazepin-3-yl}(4-isopropyl-1-piperazinyl)methanone]
- inhibition at 0.1 µM: -17%

Compound: COc1cccc(-c2cc(OC)c(C(=O)N3Cc4ccc(C(=O)N5CCN(C(C)C)CC5)n4Cc4ccccc43)cc2Cl)c1 [Example 239, {10-[(6-Chloro-3,3′-dimethoxy[1,1′-biphenyl]-4-yl)carbonyl]-10,11-dihydro-5H-pyrrolo[2,1-c][1,4]benzodiazepin-3-yl}(4-isopropyl-1-piperazinyl)methanone]
- inhibition at 0.1 µM: 16%

Compound: C=CCN1CCN(C(=O)c2ccc3n2Cc2ccccc2N(C(=O)c2ccc(-c4cccc5ccccc45)c(OC)c2)C3)CC1 [Example 231, (4-Allyl-1-piperazinyl){10-[3-methoxy-4-(1-naphthyl)benzoyl]-10,11-dihydro-5H -pyrrolo[2,1-c][1,4]benzodiazepin-3-yl}methanone]
- inhibition at 0.1 µM: -5%

Compound: COc1cc(C(=O)N2Cc3ccc(C(=O)NCCC4CCCN4C)n3Cc3ccccc32)ccc1-c1cccc2ccccc12 (stereo not shown) [Example 170, 10-[3-Methoxy-4-(1-naphthyl)benzoyl]-N-[2-(1-methyl-2-pyrrolidinyl)ethyl]-10,11-dihydro-5H-pyrrolo[2,1-c][1,4]benzodiazepine-3-carboxamide]
- inhibition at 0.1 µM: 27%

Compound: COc1cc(-c2ccccc2C)c(Cl)cc1C(=O)N1Cc2ccc(C(=O)N(C)C3CCN(C)C3)n2Cc2ccccc21 (stereo not shown) [Example 190, 10-[(6-Chloro-3-methoxy-2′-methyl[1,1′-biphenyl]-4-yl)carbonyl]-N-methyl-N-(1-methyl-3-pyrrolidinyl)-10,11-dihydro-5H-pyrrolo[2,1-c][1,4]benzodiazepine-3-carboxamide]
- inhibition at 0.1 µM: 9%

Compound: Cc1cc(C(=O)N2Cc3ccc(C(=O)N4CCN(C(C)C)CC4)n3Cc3ccccc32)ccc1-c1ccccc1C(F)(F)F [Example 240, (4-Isopropyl-1-piperazinyl)(10-{[2-methyl-2′-(trifluoromethyl)[1,1′-biphenyl]-4-yl]carbonyl}-10,11-dihydro-5H-pyrrolo[2,1-c][1,4]benzodiazepin-3-yl)methanone]
- inhibition at 0.1 µM: 9%

Compound: COc1cc(C(=O)N2Cc3ccc(C(=O)N4CCN(CCN(C)C)CC4)n3Cc3ccccc32)ccc1-c1ccccc1C [Example 201, {4-[2-(Dimethylamino)ethyl]-1-piperazinyl}{10-[(2-methoxy-2′-methyl[1,1′-biphenyl]-4-yl)carbonyl]-10,11-dihydro-5H-pyrrolo[2,1-c][1,4]benzodiazepin-3-yl}methanone]
- inhibition at 0.1 µM: 19%

Compound: O=C(c1ccc2n1Cc1ccccc1N(C(=O)c1ccc(-c3cccc4ccccc34)cc1Cl)C2)N1CCN(CCN2CCOCC2)CC1 [Example 215, {10-[2-Chloro-4-(1-naphthyl)benzoyl]-10,11-dihydro-5H-pyrrolo[2,1-c][1,4]benzodiazepin-3-yl}{4-[2-(4-morpholinyl)ethyl]-1-piperazinyl}methanone]
- inhibition at 0.1 µM: 22%

Compound: COc1ccccc1-c1ccc(C(=O)N2Cc3ccc(C(=O)N(C)C4CCN(C)CC4)n3Cc3ccccc32)cc1OC [Example 183, 10-[(2,2′-Dimethoxy[1,1′-biphenyl]-4-yl)carbonyl]-N-methyl-N-(1-methyl-4-piperidinyl)-10,11-dihydro-5H-pyrrolo[2,1-c][1,4]benzodiazepine-3-carboxamide]
- inhibition at 0.1 µM: 18%

Compound: C=CCN1CCN(C(=O)c2ccc3n2Cc2ccccc2N(C(=O)c2ccc(-c4ccccc4OC)c(OC)c2)C3)CC1 [Example 227, (4-Allyl-1-piperazinyl){10-[(2,2′-dimethoxy[1,1′-biphenyl]-4-yl)carbonyl]-10,11-dihydro-5H -pyrrolo[2,1-c][1,4]benzodiazepin-3-yl}methanone]
- inhibition at 0.1 µM: 2%

Compound: COc1cc(C(=O)N2Cc3ccc(C(=O)N4CCN(C(C)C)CC4)n3Cc3ccccc32)ccc1-c1cccc2ccccc12 [Example 236, (4-Isopropyl-1-piperazinyl){10-[3-methoxy-4-(1-naphthyl)benzoyl]-10,11-dihydro-5H -pyrrolo[2,1-c][1,4]benzodiazepin-3-yl}methanone]
- inhibition at 0.1 µM: 5%

Compound: COc1cc(-c2ccccc2C)c(Cl)cc1C(=O)N1Cc2ccc(C(=O)N3CCN(CCN4CCOCC4)CC3)n2Cc2ccccc21 [Example 217, {10-[(6-Chloro-3-methoxy-2′-methyl[1,1′-biphenyl]-4-yl)carbonyl]-10,11-dihydro-5H -pyrrolo[2,1-c][1,4]benzodiazepin-3-yl}{4-[2-(4-morpholinyl)ethyl]-1-piperazinyl}methanone]
- inhibition at 0.1 µM: 34%

Compound: COc1ccccc1-c1ccc(C(=O)N2Cc3ccc(C(=O)NCCC4CCCN4C)n3Cc3ccccc32)cc1OC (stereo not shown) [Example 171, 10-[(2,2′-Dimethoxy[1,1′-biphenyl]-4-yl)carbonyl]-N-[2-(1-methyl-2-pyrrolidinyl)ethyl]-10,11-dihydro-5H-pyrrolo[2,1-c][1,4]benzodiazepine-3-carboxamide]
- inhibition at 0.1 µM: 14%

Compound: COc1cccc(-c2ccc(C(=O)N3Cc4ccc(C(=O)N(C)C5CCN(C)C5)n4Cc4ccccc43)cc2C)c1 (stereo not shown) [Example 186, 10-[(3′-Methoxy-2-methyl[1,1′-biphenyl]-4-yl)carbonyl]-N-methyl-N-(1-methyl-3-pyrrolidinyl)-10,11-dihydro-5H-pyrrolo[2,1-c][1,4]benzodiazepine-3-carboxamide]
- inhibition at 0.1 µM: 8%

— patent US7109193B2, “Tricyclic diazepines tocolytic oxytocin receptor antagonists” (Wyeth, priority 2001, dated 2006)
